Experimental findings from patent publication US10919885B2, “Compounds and uses thereof” (Yumanity Therapeutics, Inc., priority 2018, dated 2021) are described below.

As usually defined, the IC50 is the concentration needed to halve the response being measured. Read a low IC50 as greater potency.

Sequence of human SCD1 (O00767 whole entry): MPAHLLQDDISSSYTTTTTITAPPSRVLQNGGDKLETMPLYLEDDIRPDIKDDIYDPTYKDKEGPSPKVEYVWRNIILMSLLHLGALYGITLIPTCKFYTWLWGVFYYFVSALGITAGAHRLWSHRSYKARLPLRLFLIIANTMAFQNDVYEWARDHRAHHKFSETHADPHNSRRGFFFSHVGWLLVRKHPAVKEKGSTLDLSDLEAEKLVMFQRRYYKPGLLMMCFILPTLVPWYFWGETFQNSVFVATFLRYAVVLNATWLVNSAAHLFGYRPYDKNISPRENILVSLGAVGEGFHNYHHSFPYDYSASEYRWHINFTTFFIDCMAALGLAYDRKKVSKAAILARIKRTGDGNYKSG

The target in the test is human SCD1 (Homo sapiens (Human), UniProt O00767). Nature of the test: Yeast growth assay, strain expressing human SCD1 as the sole desaturase (reduced growth as surrogate for SCD inhibition). Type of test: cell-based. The settings on record: yeast with OLE1 deleted expressing human SCD1 from a plasmid; growth read as OD600 after 40 h at 30° C.; top drug concentration 33.3 μM. As for the experimental part:
Strains expressing SCD1 or SCD5 as the sole desaturase, the human SCD1 and SCD5 genes were used to evaluate inhibition of SCD1/SCD5 using reduced growth as a surrogate for SCD inhibition. These yeast strains express human SCD1 or SCD5 from a plasmid harbored in a strain in which the yeast OLE1 gene is deleted.
All compound profiling experiments were performed using the same basic protocol. Yeast were cultured using standard techniques in complete synthetic media lacking uracil and containing yeast nitrogen base supplemented with 2% (w/v) glucose (SD-Ura) Starter cultures were inoculated in 3 mL SD-Ura media containing 0.01% tween and 0.2 mM palmitoleic and oleic acid. Cultures were incubated overnight in a 30° C. shaker incubator (225 rpm). Saturated morning cultures were centrifuged, washed in SD-Ura media lacking TWEEN-20 and fatty acids, and then diluted 1:20 in fresh SD-Ura media also lacking TWEEN-20 and fatty acids.
Compound administration was performed in two separate steps. First, 15 μL of SD-Ura was dispensed into clear 384-well assay plates using a MULTIDROP™ Combi reagent dispenser. […] The cultures described above were centrifuged and washed with media lacking TWEEN-20 or oleic and palmitoleic acids.
After yeast delivery, assay plates were incubated under humidified conditions at 30° C. for 40 h. Yeast growth was monitored by reading the OD600 of each well using a microplate reader (Perkin Elmer EnVision™).
Compound “5-acetyl-N-(1-(3-fluorobenzyl)-1H-pyrazol-4-yl)isoxazole-3-carboxamide [Compound 91]” showed an IC50 of 439 nM. In other words, the sub-micromolar range.
To `O=C(Nc1cnn(Cc2ccccc2)c1)c1cc(-c2ccco2)on1` [Compound 4, N-(1-benzyl-1H-pyrazol-4-yl)-5-(furan-2-yl)isoxazole-3-carboxamide] belongs 90 nM; to `Cc1nn(Cc2ccccc2)c(C)c1NC(=O)c1cc(-c2ccc3c(c2)OCO3)on1` [Compound 5], > 45000 nM.
The compound `O=C(Nc1cnn(Cc2ccccc2)c1)c1cc(-c2ccccn2)on1` [Compound 8, N-(1-benzylpyrazol-4-yl)-5-(2-pyridyl)isoxazole-3-carboxamide] came in with an IC50 of 700 nM.
With `O=C(Nc1cnn(Cc2ccccc2)c1)c1cc(-c2ccco2)no1` [Compound 11, N-(1-benzylpyrazol-4-yl)-3-(2-furyl)isoxazole-5-carboxamide], 50 nM corresponded to half-maximal inhibition (IC50). This IC50 is about 14-fold lower than that of the compound before.
Turning to `O=C(Nc1cnn(Cc2ccccc2C(F)(F)F)c1)c1cc(-c2ccco2)on1` [Compound 14, 5-(furan-2-yl)-N-(1-(2-(trifluoromethyl)benzyl)-1H-pyrazol-4-yl)isoxazole-3-carboxamide], the half-maximal inhibitory concentration (IC50) is > 45000 nM.
On to `O=C(Nc1cnn(Cc2ccc(F)cc2)c1)c1cc(-c2ccco2)on1` [Compound 18, N-[1-[(4-fluorophenyl)methyl]pyrazol-4-yl]-5-(2-furyl)isoxazole-3-carboxamide], for which the IC50 was > 45000 nM.
In the case of `O=C(Nc1cnn(Cc2ccccc2F)c1)c1cc(-c2ccco2)on1` [Compound 19, N-[1-[(2-fluorophenyl)methyl]pyrazol-4-yl]-5-(2-furyl)isoxazole-3-carboxamide] it was 360 nM.
Regarding `O=C(Nc1cnn(Cc2cccc(C(F)(F)F)c2)c1)c1cc(-c2ccco2)on1` [Compound 20, 5-(2-furyl)-N-[1-[[3-(trifluoromethyl)phenyl]methyl]pyrazol-4-yl]isoxazole-3-carboxamide], the IC50 is > 45000 nM.
For the compound `O=C(Nc1cnn(Cc2cccc(Cl)c2)c1)c1cc(-c2ccco2)on1` [Compound 22, N-[1-[(3-chlorophenyl)methyl]pyrazol-4-yl]-5-(2-furyl)isoxazole-3-carboxamide], the IC50 was > 45000 nM.
With `O=C(Nc1cnn(Cc2ccccc2Cl)c1)c1cc(-c2ccco2)on1` [Compound 23, N-[1-[(2-chlorophenyl)methyl]pyrazol-4-yl]-5-(2-furyl)isoxazole-3-carboxamide], the IC50 is > 45000 nM.
For `O=C(Nc1cnn(CC2CCCCC2)c1)c1cc(-c2ccco2)on1` [Compound 26, N-[1-(cyclohexylmethyl)pyrazol-4-yl]-5-(2-furyl)isoxazole-3-carboxamide], the 50% inhibitory concentration (IC50) is > 45000 nM.
For the compound `O=C(Nc1cnn(Cc2cc(F)ccc2Cl)c1)c1cc(-c2ccco2)on1` [Compound 28, N-(1-(2-chloro-5-fluorobenzyl)-1H-pyrazol-4-yl)-5-(furan-2-yl)isoxazole-3-carboxamide], the IC50 is > 45000 nM.
In the case of `O=C(Nc1cnn(Cc2cccc(F)c2)c1)c1cc(-c2ccco2)on1` [Compound 30, N-[1-[(3-fluorophenyl)methyl]pyrazol-4-yl]-5-(2-furyl)isoxazole-3-carboxamide] it was 10 nM; in that of `O=C(Nc1cnn(Cc2cc(F)ccc2C(F)(F)F)c1)c1cc(-c2ccco2)on1` [Compound 36, N-[1-[[5-fluoro-2-(trifluoromethyl)phenyl]methyl]pyrazol-4-yl]-5-(2-furyl)isoxazole-3-carboxamide], > 45000 nM; in that of `O=C(Nc1cnn(Cc2ccccc2)c1)c1cc(-c2cncs2)on1` [Compound 37, N-(1-benzylpyrazol-4-yl)-5-thiazol-5-yl-isoxazole-3-carboxamide], 260 nM.
On to `O=C(Nc1cnn(Cc2ccccc2)c1)c1cc(-c2ccccc2F)on1` [Compound 38, N-(1-benzylpyrazol-4-yl)-5-(2-fluorophenyl)isoxazole-3-carboxamide], for which the IC50 was > 45000 nM.
`O=C(Nc1cc(-c2ccco2)on1)c1cnn(Cc2ccccc2)c1` [Compound 49, 1-benzyl-N-[5-(2-furyl)isoxazol-3-yl]pyrazole-4-carboxamide]: the IC50 is > 45000 nM.
In the case of `C=C(C)c1cc(C(=O)Nc2cnn(Cc3cccc(F)c3)c2)no1` [Compound 58, N-(1-(3-fluorobenzyl)-1H-pyrazol-4-yl)-5-(prop-1-en-2-yl)isoxazole-3-carboxamide] it was 20 nM.
`CC(C)c1cc(C(=O)Nc2cnn(Cc3cccc(F)c3)c2)no1` [Compound 60, N-(1-(3-fluorobenzyl)-1H-pyrazol-4-yl)-5-isopropylisoxazole-3-carboxamide] yielded an IC50 of 30 nM.
To `O=C(Nc1cnn(Cc2cccc(F)c2)c1)c1cc(-c2cncs2)on1` [Compound 69, N-(1-(3-fluorobenzyl)-1H-pyrazol-4-yl)-5-(thiazol-5-yl)isoxazole-3-carboxamide] belongs 190 nM; to `O=C(Nc1cnn(Cc2cccc(F)c2)c1)c1cc(C2CCCCC2)on1` [Compound 83, 5-cyclohexyl-N-(1-(3-fluorobenzyl)-1H-pyrazol-4-yl)isoxazole-3-carboxamide], 66 nM; to `O=C(Nc1cnn(Cc2cccc(F)c2)c1)c1cc(C2=CCCCC2)on1` [Compound 85, 5-cyclohexenyl-N-(1-(3-fluorobenzyl)-1H-pyrazol-4-yl)isoxazole-3-carboxamide], 11 nM.
In turn, `O=C(Nc1cnn(Cc2cccc(F)c2)c1)c1cc(-c2cnco2)on1` [Compound 86, N-(1-(3-fluorobenzyl)-1H-pyrazol-4-yl)-5-(oxazol-5-yl)isoxazole-3-carboxamide] had an IC50 of 188 nM. This IC50 lies about 17-fold higher than the previous one.
To `O=C(Nc1cnn(Cc2cccc(F)c2)c1)c1cc(N2CCCCC2)on1` [Compound 102, N-(1-(3-fluorobenzyl)-1H-pyrazol-4-yl)-5-(piperidin-1-yl)isoxazole-3-carboxamide] belongs 36 nM; to `O=C(Nc1cnn(Cc2cccc(F)c2)c1)c1cc(Cl)on1` [Compound 105, 5-chloro-N-(1-(3-fluorobenzyl)-1H-pyrazol-4-yl)isoxazole-3-carboxamide], 3900 nM.
In turn, `O=C(Nc1cnn(Cc2ccccc2)c1)c1cc(-c2nccs2)on1` [Compound 110, N-(1-benzyl-1H-pyrazol-4-yl)-5-(thiazol-2-yl)isoxazole-3-carboxamide] returned an IC50 of 8900 nM. Compared with the last compound, the IC50 is about 2.3-fold higher.
Compound `O=C(Nc1cnn(Cc2ccccc2F)c1)c1cc(-c2ccccc2)on1` [Compound 111] showed an IC50 of 9400 nM.
Compound `COC1(c2cc(C(=O)Nc3cnn(Cc4cccc(F)c4)c3)no2)CCC1` [Compound 115, N-(1-(3-fluorobenzyl)-1H-pyrazol-4-yl)-5-(1-methoxycyclobutyl)isoxazole-3-carboxamide] had a concentration for half-maximal inhibition (IC50) of 340 nM.
Compound `CC(C)c1cc(C(=O)Nc2cnn(Cc3ccccc3)c2)no1` [Compound 117, N-(1-benzyl-1H-pyrazol-4-yl)-5-isopropylisoxazole-3-carboxamide] had an IC50 of 26 nM.
As for `COC1(c2cc(C(=O)Nc3cnn(Cc4ccccc4)c3)no2)CCC1` [Compound 120], the IC50 worked out at 940 nM.
In the case of `CC1(c2cc(C(=O)Nc3cnn(Cc4ccccc4)c3)no2)COC1` [Compound 121], it took 210 nM to reach half-maximal inhibition (IC50).
As to `O=C(Nc1cnn(Cc2ccccc2)c1)c1cc(-c2ncccc2F)on1` [Compound 122], the IC50 is 4700 nM.
In the case of `COc1ccccc1Cn1cc(NC(=O)c2cc(-c3ccccc3)on2)cn1` [Compound 125, N-(1-(2-methoxybenzyl)-1H-pyrazol-4-yl)-5-phenylisoxazole-3-carboxamide] it was > 45000 nM; in that of `COCc1ncc(-c2cc(C(=O)Nc3cnn(Cc4ccccc4)c3)no2)s1` [Compound 140, N-(1-benzyl-1H-pyrazol-4-yl)-5-(2-(methoxymethyl)thiazol-5-yl)isoxazole-3-carboxamide], 5120 nM.
Compound `O=C(Nc1cnn(Cc2ccccc2)c1)c1cc(-c2ccncn2)on1` [Compound 148] showed an IC50 of 4000 nM.
On to `O=C(Nc1cnn(Cc2ccccc2)c1)c1cc(-c2cnco2)on1` [Compound 149, N-(1-benzyl-1H-pyrazol-4-yl)-5-(oxazol-5-yl)isoxazole-3-carboxamide], for which the IC50 was > 45000 nM.
`O=C(Nc1cnn(Cc2ccccc2)c1)c1noc2c1CCCC2` [Compound 156, N-(1-benzyl-1H-pyrazol-4-yl)-4,5,6,7-tetrahydrobenzo[d]isoxazole-3-carboxamide] displayed an IC50 of 10 nM.
On to `O=C(Nc1cnn(Cc2ccccc2)c1)c1cc(N2CCCCC2)on1` [Compound 159, N-(1-benzyl-1H-pyrazol-4-yl)-5-(piperidin-1-yl)isoxazole-3-carboxamide], for which the IC50 came to 58 nM.
In the case of `O=C(Nc1cnn(Cc2cnccc2C(F)(F)F)c1)c1cc(-c2ccccc2)on1` [Compound 160, 5-phenyl-N-(1-((4-(trifluoromethyl)pyridin-3-yl)methyl)-1H-pyrazol-4-yl)isoxazole-3-carboxamide], the IC50 was > 45000 nM.
For `CC(C)c1cc(C(=O)Nc2cnn(Cc3cnccc3C(F)(F)F)c2)no1` [Compound 161, 5-isopropyl-N-(1-((4-(trifluoromethyl)pyridin-3-yl)methyl)-1H-pyrazol-4-yl)isoxazole-3-carboxamide], the IC50 is 25000 nM.
